Literature values as cited in US20240374689A1 (Longevity Biotech, Inc., priority 2010, published 2024).

Conditions: in humans

plasma half-life: 2 min
Substance: GLP-1
